According to the NIST ThermoML archive (doi:10.1021/je500395f):

Conditions: Fluid (supercritical or subcritical phases), Coaxial cylinder method

CCC [propane]
Conditions | thermal conductivity [W/m/K]
373.2 K, 4574 kPa | 0.0745
373.2 K, 4590 kPa | 0.0724
373.2 K, 4605 kPa | 0.07168
373.2 K, 4610 kPa | 0.07119
373.2 K, 4640 kPa | 0.06975
373.2 K, 4660 kPa | 0.06887
373.2 K, 4680 kPa | 0.06797
373.2 K, 4740 kPa | 0.06707
373.2 K, 4900 kPa | 0.06613
373.2 K, 5100 kPa | 0.06615
373.2 K, 5540 kPa | 0.06698
373.2 K, 6300 kPa | 0.06878
373.2 K, 6700 kPa | 0.06932
373.2 K, 7400 kPa | 0.07086
373.2 K, 7780 kPa | 0.07152
373.2 K, 8900 kPa | 0.0735
373.2 K, 10500 kPa | 0.0764
373.2 K, 11900 kPa | 0.07818
374.28 K, 2900 kPa | 0.03164
374.28 K, 3087 kPa | 0.03271
374.28 K, 3424 kPa | 0.03453
374.28 K, 3945 kPa | 0.03887
374.28 K, 3975 kPa | 0.03918
374.28 K, 4080 kPa | 0.0412
374.28 K, 4200 kPa | 0.04376
374.28 K, 4280 kPa | 0.04558
374.28 K, 4320 kPa | 0.04719
374.28 K, 4380 kPa | 0.04961
374.28 K, 4425 kPa | 0.05238
374.28 K, 4440 kPa | 0.05378
374.28 K, 4450 kPa | 0.05483
374.28 K, 4460 kPa | 0.05626
374.28 K, 4475 kPa | 0.05823
374.28 K, 4485 kPa | 0.0596
374.28 K, 4510 kPa | 0.06324
374.28 K, 4515 kPa | 0.06424
374.28 K, 4518 kPa | 0.06502
374.28 K, 4520 kPa | 0.06551
374.28 K, 4535 kPa | 0.06874
374.28 K, 4545 kPa | 0.07123
374.28 K, 4550 kPa | 0.07267
374.28 K, 4560 kPa | 0.07525
374.28 K, 4565 kPa | 0.07664
374.28 K, 4570 kPa | 0.07786
374.28 K, 4575 kPa | 0.07875
374.28 K, 4580 kPa | 0.07954
374.28 K, 4585 kPa | 0.08016
374.28 K, 4590 kPa | 0.08076
374.28 K, 4595 kPa | 0.08112
374.28 K, 4600 kPa | 0.08148
374.28 K, 4605 kPa | 0.0816
374.28 K, 4610 kPa | 0.08117
374.28 K, 4615 kPa | 0.08036
374.28 K, 4620 kPa | 0.07961
374.28 K, 4625 kPa | 0.07854
374.28 K, 4630 kPa | 0.07755
374.28 K, 4640 kPa | 0.07599
374.28 K, 4650 kPa | 0.07477
374.28 K, 4670 kPa | 0.07334
374.28 K, 4685 kPa | 0.0724
374.28 K, 4710 kPa | 0.07096
374.28 K, 4720 kPa | 0.07026
374.28 K, 4740 kPa | 0.06979
374.28 K, 4760 kPa | 0.06909
374.28 K, 4780 kPa | 0.06868
374.28 K, 4820 kPa | 0.06778
374.28 K, 4900 kPa | 0.06693
374.28 K, 5000 kPa | 0.06603
374.28 K, 5200 kPa | 0.06584
374.28 K, 5500 kPa | 0.06645
374.28 K, 5798 kPa | 0.06707
374.28 K, 6323 kPa | 0.06829
374.28 K, 6760 kPa | 0.06867
375.1 K, 3780 kPa | 0.03695
375.1 K, 3790 kPa | 0.03732
375.1 K, 3794 kPa | 0.03755
375.1 K, 4210 kPa | 0.04276
375.1 K, 4300 kPa | 0.04526
375.1 K, 4315 kPa | 0.04587
375.1 K, 4350 kPa | 0.04739
375.1 K, 4400 kPa | 0.04912
375.1 K, 4450 kPa | 0.05149
375.1 K, 4510 kPa | 0.05552
375.1 K, 4520 kPa | 0.05654
375.1 K, 4525 kPa | 0.0572
375.1 K, 4535 kPa | 0.05845
375.1 K, 4545 kPa | 0.05974
375.1 K, 4550 kPa | 0.06052
375.1 K, 4555 kPa | 0.06115
375.1 K, 4560 kPa | 0.06195
375.1 K, 4565 kPa | 0.06257
375.1 K, 4570 kPa | 0.06325
375.1 K, 4575 kPa | 0.06422
375.1 K, 4580 kPa | 0.06509
375.1 K, 4585 kPa | 0.06611
375.1 K, 4590 kPa | 0.06706
375.1 K, 4595 kPa | 0.06795
375.1 K, 4600 kPa | 0.06877
375.1 K, 4605 kPa | 0.06965
375.1 K, 4610 kPa | 0.07049
375.1 K, 4620 kPa | 0.07215
375.1 K, 4625 kPa | 0.07291
375.1 K, 4630 kPa | 0.07371
375.1 K, 4635 kPa | 0.07453
375.1 K, 4640 kPa | 0.07507
375.1 K, 4645 kPa | 0.07542
375.1 K, 4650 kPa | 0.07583
375.1 K, 4655 kPa | 0.07611
375.1 K, 4660 kPa | 0.07639
375.1 K, 4665 kPa | 0.07653
375.1 K, 4670 kPa | 0.07625
375.1 K, 4675 kPa | 0.07597
375.1 K, 4680 kPa | 0.07569
375.1 K, 4685 kPa | 0.07544
375.1 K, 4695 kPa | 0.07466
375.1 K, 4700 kPa | 0.07412
375.1 K, 4710 kPa | 0.07346
375.1 K, 4720 kPa | 0.07261
375.1 K, 4740 kPa | 0.07111
375.1 K, 4750 kPa | 0.07062
375.1 K, 4770 kPa | 0.06965
375.1 K, 4790 kPa | 0.06852
375.1 K, 4800 kPa | 0.06807
375.1 K, 4850 kPa | 0.06676
375.1 K, 4890 kPa | 0.06599
375.1 K, 4920 kPa | 0.06554
375.1 K, 4950 kPa | 0.06533
375.1 K, 5040 kPa | 0.06533
375.1 K, 5140 kPa | 0.0653
375.1 K, 5160 kPa | 0.06529
375.1 K, 5226 kPa | 0.06525
375.1 K, 5322 kPa | 0.06576
375.1 K, 5580 kPa | 0.06644
375.1 K, 5830 kPa | 0.06691
375.1 K, 6480 kPa | 0.06842
375.1 K, 6540 kPa | 0.06846
375.1 K, 7140 kPa | 0.06958
375.1 K, 8020 kPa | 0.07114
375.1 K, 8950 kPa | 0.07271
375.1 K, 9500 kPa | 0.07355
375.1 K, 9700 kPa | 0.0739
375.1 K, 10360 kPa | 0.075
375.9 K, 3110 kPa | 0.03373
375.9 K, 3134 kPa | 0.0338
375.9 K, 3250 kPa | 0.03412
375.9 K, 3300 kPa | 0.03433
375.9 K, 3550 kPa | 0.03563
375.9 K, 3600 kPa | 0.03595
375.9 K, 3800 kPa | 0.03747
375.9 K, 4000 kPa | 0.03934
375.9 K, 4050 kPa | 0.03986
375.9 K, 4125 kPa | 0.04091
375.9 K, 4250 kPa | 0.04345
375.9 K, 4350 kPa | 0.04589
375.9 K, 4400 kPa | 0.04729
375.9 K, 4450 kPa | 0.04877
375.9 K, 4510 kPa | 0.05175
375.9 K, 4540 kPa | 0.0535
375.9 K, 4560 kPa | 0.05503
375.9 K, 4570 kPa | 0.05607
375.9 K, 4580 kPa | 0.05714
375.9 K, 4590 kPa | 0.05826
375.9 K, 4600 kPa | 0.05949
375.9 K, 4620 kPa | 0.06128
375.9 K, 4630 kPa | 0.06278
375.9 K, 4640 kPa | 0.06448
375.9 K, 4650 kPa | 0.06572
375.9 K, 4660 kPa | 0.06701
375.9 K, 4670 kPa | 0.06835
375.9 K, 4680 kPa | 0.06967
375.9 K, 4690 kPa | 0.07058
375.9 K, 4700 kPa | 0.07156
375.9 K, 4720 kPa | 0.07283
375.9 K, 4740 kPa | 0.07257
375.9 K, 4760 kPa | 0.07206
375.9 K, 4780 kPa | 0.07106
375.9 K, 4800 kPa | 0.0705
375.9 K, 4820 kPa | 0.06995
375.9 K, 4840 kPa | 0.06936
375.9 K, 4880 kPa | 0.06835
375.9 K, 4950 kPa | 0.06708
375.9 K, 5050 kPa | 0.06621
375.9 K, 5100 kPa | 0.0662
375.9 K, 5200 kPa | 0.06603
375.9 K, 5250 kPa | 0.06588
375.9 K, 5500 kPa | 0.06634
375.9 K, 5550 kPa | 0.06631
375.9 K, 5700 kPa | 0.06671
375.9 K, 5820 kPa | 0.06682
375.9 K, 5900 kPa | 0.06696
375.9 K, 6000 kPa | 0.06714
375.9 K, 6200 kPa | 0.06746
375.9 K, 6800 kPa | 0.06884
375.9 K, 7200 kPa | 0.0696
375.9 K, 7800 kPa | 0.07056
375.9 K, 8500 kPa | 0.072
375.9 K, 9000 kPa | 0.07288
375.9 K, 9190 kPa | 0.07314
375.9 K, 9806 kPa | 0.07405
375.9 K, 10000 kPa | 0.07439
375.9 K, 11000 kPa | 0.07591
375.9 K, 11028 kPa | 0.07597
375.9 K, 11500 kPa | 0.0765
375.9 K, 12000 kPa | 0.07724
375.9 K, 13000 kPa | 0.07845
381 K, 3253 kPa | 0.03426
381 K, 3260 kPa | 0.03429
381 K, 3320 kPa | 0.03451
381 K, 3428 kPa | 0.03498
381 K, 3580 kPa | 0.03558
381 K, 3820 kPa | 0.03665
381 K, 3880 kPa | 0.03705
381 K, 4040 kPa | 0.03825
381 K, 4100 kPa | 0.0389
381 K, 4220 kPa | 0.04027
381 K, 4520 kPa | 0.04459
381 K, 4560 kPa | 0.04539
381 K, 4600 kPa | 0.04618
381 K, 4660 kPa | 0.04756
381 K, 4740 kPa | 0.04988
381 K, 4780 kPa | 0.05126
381 K, 4800 kPa | 0.05187
381 K, 4860 kPa | 0.05418
381 K, 4880 kPa | 0.05506
381 K, 4900 kPa | 0.05594
381 K, 4920 kPa | 0.05685
381 K, 4960 kPa | 0.05866
381 K, 5000 kPa | 0.06046
381 K, 5020 kPa | 0.06124
381 K, 5040 kPa | 0.06198
381 K, 5060 kPa | 0.06268
381 K, 5100 kPa | 0.06374
381 K, 5150 kPa | 0.06448
381 K, 5200 kPa | 0.06448
381 K, 5250 kPa | 0.06475
381 K, 5300 kPa | 0.06444
381 K, 5350 kPa | 0.06439
381 K, 5390 kPa | 0.06427
381 K, 5450 kPa | 0.06435
381 K, 5550 kPa | 0.06436
381 K, 5700 kPa | 0.06435
381 K, 5900 kPa | 0.06423
381 K, 6200 kPa | 0.06503
381 K, 6500 kPa | 0.06554
381 K, 6900 kPa | 0.0664
381 K, 7162 kPa | 0.06699
381 K, 7300 kPa | 0.06714
381 K, 7583 kPa | 0.06767
381 K, 9036 kPa | 0.07035
381 K, 10110 kPa | 0.07235
381 K, 11000 kPa | 0.07371
381 K, 12000 kPa | 0.07531
381 K, 14750 kPa | 0.07855
